# Results taken from PubChem BioAssay AID1963441 (Molecular Pharmacology Branch, DTP, NCI, 2024).
# System: NCI-H1876 complex spheroid growth, % test/control
# Assay: Anticancer human tumor NCI-H1876 cell line growth inhibition [Asc];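 also: compound exposure lasted 7 days starting three days after seeding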;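 as to viability, T/C: 100% = DMSO vehicle control wells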
# Details: for IC50: curve of first compound; for viability, T/C: stronger effect = lower value
# Method in brief: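 Tumor cells were grown as multicellular spheroids with stromal HUVEC and mesenchymal stem cells and treated singly or in combination. Concentrations fell in half-log steps from the clinical Cmax, or from 10 microM where none was known.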
structure (smiles),measurement,setting,value
CCN1CCN(Cc2ccc(Nc3ncc(F)c(-c4cc(F)c5nc(C)n(C(C)C)c5c4)n3)nc2)CC1 + CCN1C(C(=O)NC23CCC(C(=O)O)(CC2)CC3)C(c2cccc(Cl)c2F)C2(C(=O)Nc3cc(Cl)ccc32)C12CCCCC2,IC50,second compound 0.00949 µM,> 1000 nM
same,IC50,second compound 0.03 µM,> 1000 nM
same,IC50,second compound 0.0949 µM,> 1000 nM
same,IC50,second compound 0.3 µM,> 1000 nM
same,IC50,second compound 0.949 µM,> 1000 nM
same,IC50,second compound 3 µM,> 1000 nM
same,"viability, T/C","second compound 0.00949 µM, first compound 0.00316 µM",103%
same,"viability, T/C","second compound 0.00949 µM, first compound 0.01 µM",100%
same,"viability, T/C","second compound 0.00949 µM, first compound 0.0316 µM",106%
same,"viability, T/C","second compound 0.00949 µM, first compound 0.1 µM",115%
same,"viability, T/C","second compound 0.00949 µM, first compound 0.316 µM",115%
same,"viability, T/C","second compound 0.00949 µM, first compound 1 µM",129%
same,"viability, T/C","second compound 0.03 µM, first compound 0.00316 µM",102%
same,"viability, T/C","second compound 0.03 µM, first compound 0.01 µM",102%
same,"viability, T/C","second compound 0.03 µM, first compound 0.0316 µM",96.1%
same,"viability, T/C","second compound 0.03 µM, first compound 0.1 µM",113%
same,"viability, T/C","second compound 0.03 µM, first compound 0.316 µM",123%
same,"viability, T/C","second compound 0.03 µM, first compound 1 µM",133%
same,"viability, T/C","second compound 0.0949 µM, first compound 0.00316 µM",105%
same,"viability, T/C","second compound 0.0949 µM, first compound 0.01 µM",95.9%
same,"viability, T/C","second compound 0.0949 µM, first compound 0.0316 µM",117%
same,"viability, T/C","second compound 0.0949 µM, first compound 0.1 µM",109%
same,"viability, T/C","second compound 0.0949 µM, first compound 0.316 µM",116%
same,"viability, T/C","second compound 0.0949 µM, first compound 1 µM",127%
same,"viability, T/C","second compound 0.3 µM, first compound 0.00316 µM",103%
same,"viability, T/C","second compound 0.3 µM, first compound 0.01 µM",105%
same,"viability, T/C","second compound 0.3 µM, first compound 0.0316 µM",102%
same,"viability, T/C","second compound 0.3 µM, first compound 0.1 µM",113%
same,"viability, T/C","second compound 0.3 µM, first compound 0.316 µM",123%
same,"viability, T/C","second compound 0.3 µM, first compound 1 µM",129%
same,"viability, T/C","second compound 0.949 µM, first compound 0.00316 µM",110%
same,"viability, T/C","second compound 0.949 µM, first compound 0.01 µM",114%
same,"viability, T/C","second compound 0.949 µM, first compound 0.0316 µM",106%
same,"viability, T/C","second compound 0.949 µM, first compound 0.1 µM",114%
same,"viability, T/C","second compound 0.949 µM, first compound 0.316 µM",131%
same,"viability, T/C","second compound 0.949 µM, first compound 1 µM",122%
same,"viability, T/C","second compound 3 µM, first compound 0.00316 µM",113%
same,"viability, T/C","second compound 3 µM, first compound 0.01 µM",99.2%
same,"viability, T/C","second compound 3 µM, first compound 0.0316 µM",109%
same,"viability, T/C","second compound 3 µM, first compound 0.1 µM",108%
same,"viability, T/C","second compound 3 µM, first compound 0.316 µM",116%
same,"viability, T/C","second compound 3 µM, first compound 1 µM",111%
Cc1nc(N2CCC3(CC2)COC(C)C3N)c(CO)nc1Sc1ccnc(N)c1Cl (centres undefined) + CCN1C(C(=O)NC23CCC(C(=O)O)(CC2)CC3)C(c2cccc(Cl)c2F)C2(C(=O)Nc3cc(Cl)ccc32)C12CCCCC2,IC50,second compound 0.00949 µM,> 3000 nM
same,IC50,second compound 0.03 µM,> 3000 nM
same,IC50,second compound 0.0949 µM,> 3000 nM
same,IC50,second compound 0.3 µM,> 3000 nM
same,IC50,second compound 0.949 µM,> 3000 nM
same,IC50,second compound 3 µM,> 3000 nM
same,"viability, T/C","second compound 0.00949 µM, first compound 0.00949 µM",89.1%
same,"viability, T/C","second compound 0.00949 µM, first compound 0.03 µM",90%
same,"viability, T/C","second compound 0.00949 µM, first compound 0.0949 µM",92.1%
same,"viability, T/C","second compound 0.00949 µM, first compound 0.3 µM",102%
same,"viability, T/C","second compound 0.00949 µM, first compound 0.949 µM",91.6%
same,"viability, T/C","second compound 0.00949 µM, first compound 3 µM",77.5%
same,"viability, T/C","second compound 0.03 µM, first compound 0.00949 µM",99.6%
same,"viability, T/C","second compound 0.03 µM, first compound 0.03 µM",104%
same,"viability, T/C","second compound 0.03 µM, first compound 0.0949 µM",118%
same,"viability, T/C","second compound 0.03 µM, first compound 0.3 µM",93.5%
same,"viability, T/C","second compound 0.03 µM, first compound 0.949 µM",92.4%
same,"viability, T/C","second compound 0.03 µM, first compound 3 µM",80.2%
same,"viability, T/C","second compound 0.0949 µM, first compound 0.00949 µM",103%
same,"viability, T/C","second compound 0.0949 µM, first compound 0.03 µM",113%
same,"viability, T/C","second compound 0.0949 µM, first compound 0.0949 µM",94.3%
same,"viability, T/C","second compound 0.0949 µM, first compound 0.3 µM",92.4%
same,"viability, T/C","second compound 0.0949 µM, first compound 0.949 µM",93.9%
same,"viability, T/C","second compound 0.0949 µM, first compound 3 µM",87.3%
same,"viability, T/C","second compound 0.3 µM, first compound 0.00949 µM",109%
same,"viability, T/C","second compound 0.3 µM, first compound 0.03 µM",104%
same,"viability, T/C","second compound 0.3 µM, first compound 0.0949 µM",93.4%
same,"viability, T/C","second compound 0.3 µM, first compound 0.3 µM",99.5%
same,"viability, T/C","second compound 0.3 µM, first compound 0.949 µM",88.7%
same,"viability, T/C","second compound 0.3 µM, first compound 3 µM",88.7%
same,"viability, T/C","second compound 0.949 µM, first compound 0.00949 µM",108%
same,"viability, T/C","second compound 0.949 µM, first compound 0.03 µM",106%
same,"viability, T/C","second compound 0.949 µM, first compound 0.0949 µM",103%
same,"viability, T/C","second compound 0.949 µM, first compound 0.3 µM",109%
same,"viability, T/C","second compound 0.949 µM, first compound 0.949 µM",105%
same,"viability, T/C","second compound 0.949 µM, first compound 3 µM",87%
same,"viability, T/C","second compound 3 µM, first compound 0.00949 µM",108%
same,"viability, T/C","second compound 3 µM, first compound 0.03 µM",97.9%
same,"viability, T/C","second compound 3 µM, first compound 0.0949 µM",74%
same,"viability, T/C","second compound 3 µM, first compound 0.3 µM",90.3%
same,"viability, T/C","second compound 3 µM, first compound 0.949 µM",90.1%
same,"viability, T/C","second compound 3 µM, first compound 3 µM",67%
